Legend:
[1] = biological target: T1, KRAS G12S (Homo sapiens, UniProt P01116, G12S); experiment: HTRF assay, interaction of GST-tagged K-Ras with His-tagged hSOS1 (KRAS G12S); assay type: biochemical; conditions: <500 nM, read-out: Inhibition of KRAS G12S (IC50)
T1 construct: made in house; host or cells: E. coli BL21 (DE3)
Text: (§1) This assay can be also used to assess a selective inhibition or reduction of signaling output of a mutant Ras protein relative to a wildtype, or relative to a different mutant Ras protein. For example, the equilibrium interaction of wildtype KRAS or K-Ras mutant (e.g., wildtype or a mutant thereof) with SOS1 (e.g., hSOS1) can be assessed as a proxy or an indication for the ability of a subject compound to bind and inhibit Ras protein. The HTRF assay detects from (i) a fluorescence resonance energy transfer (FRET) donor (e.g., antiGST-Europium) that is bound to GST-tagged K-Ras mutant to (ii) a FRET acceptor (e.g., anti-6His-XL665) bound to a His-tagged hSOS1.
(§2) The assay buffer can contain ˜5 mM HEPES pH 7.4, ˜150 mM NaCl, ˜1 mM DTT, 0.05% BSA and 0.0025% (v/v) Igepal. A Ras working solution is prepared in an assay buffer containing typically a suitable amount of the protein construct (e.g., GST-tagged K-Ras mutant) and the FRET donor (e.g., antiGST-Eu(K) from Cisbio, France). A SOS1 working solution is prepared in an assay buffer containing suitable amount of the protein construct (e.g., His-hSOS1) and the FRET acceptor (e.g., anti-6His-XL665 from Cisbio, France). A suitable amount of the protein construct will depend on the range of activity or range of IC50 values being detected or under investigation. For detecting an IC50 within a range of 500 nM, the protein constructs of the same range of molarity can be utilized.
(§3) A fixed volume of DMSO with or without test compound is transferred into a 384-well plate. Ras working solution is added to all wells of the test plate. SOS1 working solution is added to all wells except for those that are subsequently filled with inhibitor control solution. Upon incubation for about 10 minutes or longer, the fluorescence is measured with a M1000Pro plate reader (Tecan) using HTRF detection (excitation 337 nm, emission 1: 620 nm, emission 2: 665 nm). Compounds are tested in duplicate at different concentrations (for example, 10 μM, 2.5 μM, 0.63 μM, 0.16 μM, 0.04 μM, 0.01 μM test compound). The ratiometric data (i.e., emission 2 divided by emission 1) is used to calculate IC50 values against Ras using GraphPad Prism (GraphPad software). Signaling output measured in terms of IC50 values can be obtained and a ratio of IC50 against one mutant relative to another mutant can be calculated. For instance, a selective reduction of K-Ras G12S signaling output can be evidenced by a ratio greater than one. In particular, a selective reduction of K-Ras G12S signaling relative to K-Ras WT signaling is evidenced if the ratio of IC50 (against K-Ras WT) to IC50 (against K-Ras G12S) is greater than 1.

[2] = biological target: T2, KRAS WT (Homo sapiens, UniProt P01116); experiment: HTRF assay, interaction of GST-tagged K-Ras with His-tagged hSOS1 (KRAS wildtype); assay type: biochemical; conditions: <500 nM, read-out: Inhibition of KRAS WT (IC50)
T2 construct: made in house; host or cells: E. coli BL21 (DE3)
Text: as §1, §2, §3

T2 sequence (P01116 1-188 isoform P01116-2): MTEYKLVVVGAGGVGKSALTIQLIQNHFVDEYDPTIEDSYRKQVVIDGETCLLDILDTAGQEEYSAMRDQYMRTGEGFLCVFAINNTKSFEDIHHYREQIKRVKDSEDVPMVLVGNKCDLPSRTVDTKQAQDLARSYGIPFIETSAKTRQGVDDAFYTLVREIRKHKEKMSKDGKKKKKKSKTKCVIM
T1 sequence (P01116 1-188 isoform P01116-2 G12S): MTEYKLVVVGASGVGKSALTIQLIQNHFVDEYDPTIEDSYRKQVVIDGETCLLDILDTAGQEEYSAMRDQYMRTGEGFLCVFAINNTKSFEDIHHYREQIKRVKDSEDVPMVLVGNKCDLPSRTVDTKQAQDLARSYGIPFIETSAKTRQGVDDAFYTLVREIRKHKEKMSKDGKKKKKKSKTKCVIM

IC50 [1] [nM]	IC50 [2] [nM]	SMILES
< 500	< 500	C[C@@H]1C(CN2CCOc3c(Cl)c(-c4ccc(F)c5sc(N)c(C#N)c45)c(F)c4nc(OC[C@@]56CCCN5C[C@H](F)C6)nc2c34)CN1C(=O)n1ccnc1 (stereo partly drawn) [Compound 413, 4-(4-(((2R)-1-(1H-imidazole-1-carbonyl)-2-methylazetidin-3-yl)methyl)-8-chloro-10-fluoro-2-(((2R,7aS)-2-fluorotetrahydro-1H-pyrrolizin-7a(5H)-yl)methoxy)-5,6-dihydro-4H-[1,4]oxazepino[5,6,7-de]quinazolin-9-yl)-2-amino-7-fluorobenzo[b]thiophene-3-carbonitrile]
< 500	< 500	C[C@@H]1CCOc2c(Cl)c(-c3ccc(F)c4sc(N)c(C#N)c34)c(F)c3nc(OC[C@@]45CCCN4C[C@H](F)C5)nc(c23)N1CC1CCCN1C(=O)n1ccnc1 (stereo partly drawn) [Compound 414, 4-((5R)-4-((1-(1H-imidazole-1-carbonyl)pyrrolidin-2-yl)methyl)-9-chloro-11-fluoro-2-(((2R,7aS)-2-fluorotetrahydro-1H-pyrrolizin-7a(5H)-yl)methoxy)-5-methyl-4,5,6,7-tetrahydro-[1,5]oxazocino[4,3,2-de]quinazolin-10-yl)-2-amino-7-fluorobenzo[b]thiophene-3-carbonitrile]
< 500	< 500	C[C@@H]1CCOc2c(Cl)c(-c3ccc(F)c4sc(N)c(C#N)c34)c(F)c3nc(OC[C@@]45CCCN4C[C@H](F)C5)nc(c23)N1CC1CCN(C(=O)n2ccnc2)C1 (stereo partly drawn) [Compound 417, 4-((5R)-4-((1-(1H-imidazole-1-carbonyl)pyrrolidin-3-yl)methyl)-9-chloro-11-fluoro-2-(((2R, 7aS)-2-fluorotetrahydro-1H-pyrrolizin-7a(5H)-yl)methoxy)-5-methyl-4,5,6,7-tetrahydro-[1,5]oxazocino [4,3,2-de]quinazolin-10-yl)-2-amino-7-fluorobenzo [b]thiophene-3-carbonitrile]
< 500	< 500	Cc1cn(C(=O)N2CC[C@@H](N3C[C@H](C)Oc4nc(-c5cc(N)c(F)c(C)c5C(F)(F)F)c(F)c5nc(OC[C@@]67CCCN6C[C@H](F)C7)nc3c45)[C@H]2C)c(C)n1 [Compound 430, ((2R,3R)-3-((S)-5-(5-amino-4-fluoro-3-methyl-2-(trifluoromethyl)phenyl)-4-fluoro-2-(((2R,7aS)-2-fluorotetrahydro-1H-pyrrolizin-7a(5H)-yl)methoxy)-8-methyl-8,9-dihydro-10H-7-oxa-1,3,6,10-tetraazacyclohepta [de]naphthalen-10-yl)-2-methylpyrrolidin-1-yl)(2,4-dimethyl-1H-imidazol-1-yl)methanone]
< 500	< 500	C[C@@H]1[C@H](N2CCCc3nc(-c4ccc(F)c5sc(N)c(C#N)c45)c(F)c4nc(OC[C@@]56CCCN5C[C@H](F)C6)nc2c34)CCN1C(=O)n1cnc(Cl)n1 [Compound 433, 2-amino-4-(10-((2R,3R)-1-(3-chloro-1H-1,2,4-triazole-1-carbonyl)-2-methylpyrrolidin-3-yl)-4-fluoro-2-(((2R,7aS)-2-fluorotetrahydro-1H-pyrrolizin-7a(5H)-yl)methoxy)-7,8,9,10-tetrahydro-1,3,6,10-tetraazacyclohepta[de]naphthalen-5-yl)-7-fluorobenzo[b]thiophene-3-carbonitrile]
< 500	< 500	Cc1cn(C(=O)N2CC[C@@H](N3CCCCc4nc(-c5cc(N)c(F)c(C)c5C(F)(F)F)c(F)c5nc(OC[C@@]67CCCN6C[C@H](F)C7)nc3c45)[C@H]2C)c(C)n1 [Compound 438, ((2R,3R)-3-(5-(5-amino-4-fluoro-3-methyl-2-(trifluoromethyl)phenyl)-4-fluoro-2-(((2R,7aS)-2-fluorotetrahydro-1H-pyrrolizin-7a(5H)-yl)methoxy)-7,8,9,10-tetrahydro-11H-1,3,6,11-tetraazacycloocta[de]naphthalen-11-yl)-2-methylpyrrolidin-1-yl)(2,4-dimethyl-1H-imidazol-1-yl)methanone]

Second part, the compound before the results:

SMILES	IC50 [1] [nM]	IC50 [2] [nM]
N#Cc1c(N)sc2c(F)ccc(-c3c(Cl)c4c5c(nc(OC[C@@]67CCCN6C[C@H](F)C7)nc5c3F)N(CC3CN(C(=O)/C=C/C5CC5)C3)CCO4)c12 [Compound 418, 2-amino-4-(8-chloro-4-((1-((E)-3-cyclopropylacryloyl)azetidin-3-yl)methyl)-10-fluoro-2-(((2R,7aS)-2-fluorotetrahydro-1H-pyrrolizin-7a(5H)-yl)methoxy)-5,6-dihydro-4H-[1,4]oxazepino [5,6,7-de]quinazolin-9-yl)-7-fluorobenzo[b]thiophene-3-carbonitrile]	< 500	< 500
C[C@H](O)[C@H]1COc2c(Cl)c(-c3ccc(F)c4sc(N)c(C#N)c34)c(F)c3nc(OC[C@@]45CCCN4C[C@H](F)C5)nc(c23)N1CC1CCN(C(=O)n2ccnc2)C1 (stereo partly drawn) [Compound 419, 4-((5R)-4-((1-(1H-imidazole-1-carbonyl)pyrrolidin-3-yl)methyl)-8-chloro-10-fluoro-2-(((2R,7aS)-2-fluorotetrahydro-1H-pyrrolizin-7a(5H)-yl)methoxy)-5-((S)-1-hydroxyethyl)-5,6-dihydro-4H-[1,4]oxazepino [5,6,7-de]quinazolin-9-yl)-2-amino-7-fluorobenzo[b] thiophene-3-carbonitrile]	< 500	< 500
N#Cc1c(N)sc2c(F)ccc(-c3c(Cl)c4c5c(nc(OC[C@@]67CCCN6C[C@H](F)C7)nc5c3F)N(CC3CN(C(=O)/C=C/C(F)F)C3)CCO4)c12 [Compound 423, 2-amino-4-(8-chloro-4-((1-((E)-4,4-difluorobut-2-enoyl)azetidin-3-yl)methyl)-10-fluoro-2-(((2R,7aS)-2-fluorotetrahydro-1H-pyrrolizin-7a (5H)-yl)methoxy)-5,6-dihydro-4H-[1,4]oxazepino[5,6,7-de]quinazolin-9-yl)-7-fluorobenzo[b]thiophene-3-carbonitrile]	< 500	< 500
C[C@H](O)[C@H]1COc2c(Cl)c(-c3ccc(F)c4sc(N)c(C#N)c34)c(F)c3nc(OC[C@@]45CCCN4C[C@H](F)C5)nc(c23)N1CC1CN(C(=O)n2ccnc2)C1 [Compound 427, 4-((5R)-4-((1-(1H-imidazole-1-carbonyl)azetidin-3-yl)methyl)-8-chloro-10-fluoro-2-(((2R,7aS)-2-fluorotetrahydro-1H-pyrrolizin-7a(5H)-yl)methoxy)-5-((S)-1-hydroxyethyl)-5,6-dihydro-4H-[1,4]oxazepino [5,6,7-de]quinazolin-9-yl)-2-amino-7-fluorobenzo[b] thiophene-3-carbonitrile]	< 500	< 500
C[C@H](O)[C@H]1COc2c(Cl)c(-c3ccc(F)c4sc(N)c(C#N)c34)c(F)c3nc(OC[C@@]45CCCN4C[C@H](F)C5)nc(c23)N1C1CC(N(C)C(=O)n2ccnc2)C1 (stereo partly drawn) [Compound 428, N-(3-((5R)-9-(2-amino-3-cyano-7-fluorobenzo[b]thiophen-4-yl)-8-chloro-10-fluoro-2-(((2R,7aS)-2-fluorotetrahydro-1H-pyrrolizin-7a(5H)-yl)methoxy)-5-((S)-1-hydroxyethyl)-5,6-dihydro-4H-[1,4]oxazepino [5,6,7-de]quinazolin-4-yl)cyclobutyl)-N-methyl-1H-imidazole-1-carboxamide]	< 500	< 500
C/C(C#N)=C\C(=O)N1CC(CN2CCOc3c(Cl)c(-c4ccc(F)c5sc(N)c(C#N)c45)c(F)c4nc(OC[C@@]56CCCN5C[C@H](F)C6)nc2c34)C1 [Compound 439, 2-amino-4-(8-chloro-4-((1-((E)-3-cyanobut-2-enoyl)azetidin-3-yl)methyl)-10-fluoro-2-(((2R,7aS)-2-fluorotetrahydro-1H-pyrrolizin-7a(5H)-yl)methoxy)-5,6-dihydro-4H-[1,4]oxazepino[5,6,7-de]quinazolin-9-yl)-7-fluorobenzo [b]thiophene-3-carbonitrile]	< 500	< 500
